Assay results: US4783443A, “Amino acyl cephalosporin derivatives” (The University of Chicago, priority 1986, dated 1988)
Converted amounts (≈) assume the structure as drawn.

Tests used:
[1] = system: Enterobacter areogenes; assay: Minimum inhibitory concentration (MIC); assay type: cell-based; settings: Gram-negative
From the text: (§1) The antibacterial effects of compounds of the invention have been assessed by determination of the minimum inhibitory concentration (M.I.C.) value against a variety of Gram-negative and -positive bacteria. The microbial susceptibility data for four compounds, together with those for the antibacterial dipeptide beta-Cl-LAla-beta-Cl-LAla, are given in Table I.
(§2) in uM to facilitate a meaningful comparison of the approximate MICs among
(§3) the tested compounds; an appreciation of the MIC values in ug/mL can be
(§4) obtained by multiplying each value (μM) by 0.55

[2] = system: Enterobacter cloacae; assay: Minimum inhibitory concentration (MIC); assay type: cell-based
From the text: as §1, §2, §3, §4

[3] = system: Escherichia coli CR; assay: Minimum inhibitory concentration (MIC); assay type: cell-based
From the text: as §1, §2, §3, §4

[4] = system: Escherichia coli DB4548; assay: Minimum inhibitory concentration (MIC); assay type: cell-based
From the text: as §1, §2, §3, §4

[5] = system: Escherichia coli JSR-O; assay: Minimum inhibitory concentration (MIC); assay type: cell-based
From the text: as §1, §2, §3, §4

[6] = system: Hemophilus influenzae 236; assay: Minimum inhibitory concentration (MIC); assay type: cell-based
From the text: as §1, §2, §3, §4

[7] = system: Hemophilus influenzae 238; assay: Minimum inhibitory concentration (MIC); assay type: cell-based
From the text: as §1, §2, §3, §4

[8] = system: Hemophilus influenzae 487; assay: Minimum inhibitory concentration (MIC); assay type: cell-based; settings: possesses a betalactamase
From the text: as §1, §2, §3, §4

[9] = system: Klebsiella pneumoniae; assay: Minimum inhibitory concentration (MIC); assay type: cell-based; settings: Gram-negative
From the text: as §1, §2, §3, §4

[10] = system: Morganella morganii; assay: Minimum inhibitory concentration (MIC); assay type: cell-based; settings: Gram-negative
From the text: as §1, §2, §3, §4

[11] = system: Psuedomonas aeruginosa; assay: Minimum inhibitory concentration (MIC); assay type: cell-based; settings: Gram-negative
From the text: as §1, §2, §3, §4

[12] = system: Salmonella typhimurium LT 2; assay: Minimum inhibitory concentration (MIC); assay type: cell-based; settings: Gram-negative
From the text: as §1, §2, §3, §4

[13] = system: Salmonella typhimurium; assay: Minimum inhibitory concentration (MIC); assay type: cell-based; settings: Gram-negative
From the text: as §1, §2, §3, §4

[14] = system: Serratia marcescens; assay: Minimum inhibitory concentration (MIC); assay type: cell-based; settings: Gram-negative
From the text: as §1, §2, §3, §4

[15] = system: Shigella flexneri; assay: Minimum inhibitory concentration (MIC); assay type: cell-based; settings: Gram-negative
From the text: as §1, §2, §3, §4

[16] = system: Staphylococcus aureus H-2690-8^R; assay: Minimum inhibitory concentration (MIC); assay type: cell-based; settings: possesses a betalactamase
From the text: as §1, §2, §3, §4

[17] = system: Staphylococcus aureus PSL-13 Pen^R; assay: Minimum inhibitory concentration (MIC); assay type: cell-based; settings: possesses a betalactamase
From the text: as §1, §2, §3, §4

[18] = system: Staphylococcus aureus PSL-14 Pen^R; assay: Minimum inhibitory concentration (MIC); assay type: cell-based; settings: possesses a betalactamase
From the text: as §1, §2, §3, §4

[19] = system: Staphylococcus aureus PSL-15 Pen^R; assay: Minimum inhibitory concentration (MIC); assay type: cell-based; settings: possesses a betalactamase
From the text: as §1, §2, §3, §4

[20] = system: Staphylococcus aureus PSL-16 Pen^R; assay: Minimum inhibitory concentration (MIC); assay type: cell-based; settings: possesses a betalactamase
From the text: as §1, §2, §3, §4

[21] = system: Staphylococcus aureus T-4624-8 Pen^R; assay: Minimum inhibitory concentration (MIC); assay type: cell-based; settings: possesses a betalactamase
From the text: as §1, §2, §3, §4

[22] = system: Streptococcus agalactiae; assay: Minimum inhibitory concentration (MIC); assay type: cell-based; settings: Gram positive
From the text: as §1, §2, §3, §4

[23] = system: Streptococcus faecalis; assay: Minimum inhibitory concentration (MIC); assay type: cell-based
From the text: as §1, §2, §3, §4

[24] = system: Escherichia coli JSR-O Cl-Pep^R; assay: Minimum inhibitory concentration (MIC); assay type: cell-based
From the text: as §1, §2, §3, §4
^(g) This ia an E. coli JSRO strain selected for resistance to the
A comparison of the data for E. coli strains JSR-O and JSR-O Cl-Pep^R is of special interest. E. coli Cl-Pep^R is an E. coli JSR-O mutant which was selected for resistance to the dipeptide (f). […] Note that the MIC values for (d) and (e) against E. coli Cl-Pep^R (100 and 50 μM, respectively) are quite similar.

[25] = system: Escherichia coli JSR-O pBR322; assay: Minimum inhibitory concentration (MIC); assay type: cell-based; settings: read-out: Minimum Inhibitory Concentration
From the text: as §1, §2, §3, §4
^(i) Contains the plasmid gene encoding the TEM betalactamase.

[26] = system: Corynebacterium JKM-4754; assay: Minimum inhibitory concentration (MIC); assay type: cell-based; settings: Corynebacterium JKM-4754, resistant to cephalothin
From the text: as §1, §2, §3, §4
(§5) ^(j) Resistant to cephalothin (MIC >200 uM);

[27] = system: Corynebacterium JKR-2285; assay: Minimum inhibitory concentration (MIC); assay type: cell-based; settings: Corynebacterium JKR-2285, resistant to cephalothin
From the text: as §1, §2, §3, §4, §5

[28] = system: Escherichia coli Ceph^R; assay: Minimum inhibitory concentration (MIC); assay type: cell-based
From the text: as §1, §2, §3, §4, §5

[29] = system: Staphylococcus epidermidis (P^R M^R); assay: Minimum inhibitory concentration (MIC); assay type: cell-based; settings: no strain number
From the text: as §1, §2, §3, §4
(§6) ^(k) P and M refer to penicillin and methicillin, respectively.

[30] = system: Staphylococcus epidermidis 1239(P^R M^R); assay: Minimum inhibitory concentration (MIC); assay type: cell-based
From the text: as §1, §2, §3, §4, §6

[31] = system: Staphylococcus epidermidis MO1554(P^S M^S); assay: Minimum inhibitory concentration (MIC); assay type: cell-based; settings: Staphylococcus epidermidis MO1554 (penicillin- and methicillin-sensitive, P^S M^S)
From the text: as §1, §2, §3, §4, §6

[32] = system: Gram-negative and -positive bacteria; assay: Antibacterial activity, general trends of the MIC panel of Table I; assay type: cell-based; settings: for insensitivity / resistance: P. aeruginosa, S. marcescens and K. pneumoniae
From the text: as §1

[33] = target: E. coli TEM beta-lactamase (Escherichia coli, UniProt P62593); assay: Kinetics of enzymatic turnover by E. coli TEM beta-lactamase; assay type: biochemical
Method: Escherichi coli TEM beta-lactamase was purchased from Applied Microbiology and Research, Porton Down, U.K. L-Alanyl-L-alanine was purchase from Sigma; N-BOC-LAla-LAla and N-BOC-beta-Cl-LAla-beta-Cl-LAla were prepared as described previously. Cheung et al supra. All other reagents were of the best grade commercially available.
Kinetic Constants for the Reactions of E. coli TEM beta-Lactamase with Cephalothin and the Cephalosporin Peptide Esters 7 and 17.

[34] = system: Gram-negative and -positive bacteria; settings: Cheung et al., 1983; cited from earlier work
[35] = Escherichia coli, read-out: Minimum Inhibitory Concentration
[36] = S. aureus strains, Corynebacterium JK strains, S. faecalis, H. influenzae 487, E. coli JSR-O and E. cloacae

Sequence of E. coli TEM beta-lactamase (P62593 24-286 limits assumed): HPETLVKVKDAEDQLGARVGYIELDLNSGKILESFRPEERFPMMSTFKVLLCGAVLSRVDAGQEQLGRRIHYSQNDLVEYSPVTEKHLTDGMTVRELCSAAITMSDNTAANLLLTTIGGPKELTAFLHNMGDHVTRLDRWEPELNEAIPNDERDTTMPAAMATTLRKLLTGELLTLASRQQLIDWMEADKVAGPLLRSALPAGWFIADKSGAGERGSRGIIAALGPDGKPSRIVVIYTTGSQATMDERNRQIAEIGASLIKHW

N[C@@H](CCl)C(=O)N[C@@H](CCl)C(=O)OCC1=C(C(=O)O)N2C(=O)[C@@H](NC(=O)Cc3cccs3)[C@H]2SC1 [(e), 7-beta-(2-thienylacetamido)-3-(beta-chloro-L-alanyl-beta-chloro-L-alanyloxymethyl)-3-cephem-4-carboxylate]
MIC [1]: 200 µM (≈ 113 µg/mL) | MIC ([2]; read-out: Minimum Inhibitory Concentration): 12.5 µM (≈ 7.07 µg/mL) | MIC [3, 35]: 12.5 µM (≈ 7.07 µg/mL) | MIC [4]: 6.25 µM (≈ 3.53 µg/mL) | MIC [5, 35]: 12.5 µM (≈ 7.07 µg/mL) | MIC ([6]; Haemophilus influenzae): 25 µM (≈ 14.1 µg/mL) | MIC ([7]; Haemophilus influenzae): ≤ 0.78 µM | MIC ([8]; Haemophilus influenzae): 3.12 µM (≈ 1.76 µg/mL) | MIC [9]: > 200 µM | MIC [10]: 50 µM (≈ 28.3 µg/mL) | MIC [11]: > 200 µM | MIC ([12]; Salmonella enterica): 25 µM (≈ 14.1 µg/mL) | MIC ([13]; Salmonella enterica): 50 µM (≈ 28.3 µg/mL) | MIC [14]: > 200 µM | MIC [15]: 50 µM (≈ 28.3 µg/mL) | MIC [16]: ≤ 0.78 µM | MIC [17]: ≤ 0.78 µM | MIC [18]: 1.56 µM (≈ 0.882 µg/mL) | MIC [19]: 1.56 µM (≈ 0.882 µg/mL) | MIC [20]: 1.56 µM (≈ 0.882 µg/mL) | MIC [21]: ≤ 0.78 µM | MIC [22]: ≤ 0.78 µM | MIC ([23]; Enterococcus faecalis, read-out: Minimum Inhibitory Concentration): 12.5 µM (≈ 7.07 µg/mL) | MIC [24, 35]: 50 µM (≈ 28.3 µg/mL) | MIC [25]: 6.25 µM (≈ 3.53 µg/mL) | MIC ([26]; JKM4754, read-out: Minimum Inhibitory Concentration): 3.12 µM (≈ 1.76 µg/mL) | MIC ([27]; JKR2285, read-out: Minimum Inhibitory Concentration): 3.12 µM (≈ 1.76 µg/mL) | MIC [28, 35]: 12.5 µM (≈ 7.07 µg/mL) | MIC [29]: ≤ 0.78 µM | MIC [30]: ≤ 0.78 µM | MIC [31]: ≤ 0.78 µM | detectable activity among the cephalosporins ([32]; E. cloacae, all of the susceptible E. coli strains, Corynebacterium strains, S. faecalis): the only cephalosporin with detectable activity | sensitivity observed ([32]; E. cloacae, all of the susceptible E. coli strains, H. influenzae 487, all of the S. aureus strains): sensitivity was observed | insensitivity / resistance [32]: resistant | sensitivity [32, 36]: sensitive | antimicrobial potency compared with the other cephalosporins ([32]; Table I, all strains): by-and-large a more potent antimicrobial agent than the other three cephalosporins (b), (c) and (d) | antibiotic potency of (e) versus amino acid ester (c) ([32]; strains sensitive to both (c) and (e)): invariably more potent an antibiotic than is the amino acid ester (c) | Vmax compared with cephalothin [33]: substantially greater than that obtained for cephalothin | substrate for the lactamase [33]: found to be substrates for the E. coli TEM beta-lactamase | binding to the lactamase (KM approximating KS) ([33]; effect of the C10-dipeptidyl substituent): do not compromise the binding of the cephalosporin nucleus to the lactamase

Betachloro-L-Ala-beta-chloro-L-Ala [(f), reference compound]
Minimum Inhibitory Concentration [1]: 25 µM | Minimum Inhibitory Concentration ([2]; Gram-negative): 12.5 µM | Minimum Inhibitory Concentration ([3]; Escherichia coli CR): 12.5 µM | Minimum Inhibitory Concentration ([5]; Escherichia coli JSR-O, parental strain): 12.5 µM | Minimum Inhibitory Concentration [6]: > 200 µM | Minimum Inhibitory Concentration [7]: 12.5 µM | Minimum Inhibitory Concentration [8]: ≤ 0.78 µM | Minimum Inhibitory Concentration [9]: > 200 µM | Minimum Inhibitory Concentration [10]: 200 µM | Minimum Inhibitory Concentration [11]: > 200 µM | Minimum Inhibitory Concentration [12]: 200 µM | Minimum Inhibitory Concentration [13]: 200 µM | Minimum Inhibitory Concentration [14]: > 200 µM | Minimum Inhibitory Concentration [15]: 200 µM | Minimum Inhibitory Concentration [16]: 1.56 µM | Minimum Inhibitory Concentration [17]: 1.56 µM | Minimum Inhibitory Concentration [18]: 12.5 µM | Minimum Inhibitory Concentration [19]: 12.5 µM | Minimum Inhibitory Concentration [20]: 12.5 µM | Minimum Inhibitory Concentration [21]: 1.56 µM | Minimum Inhibitory Concentration [22]: ≤ 0.78 µM | Minimum Inhibitory Concentration ([23]; Streptococcus faecalis, Gram positive): 6.25 µM | Minimum Inhibitory Concentration ([24]; Escherichia coli JSR-O Cl-Pep^R, selected for resistance to the peptide (f)): > 200 µM | Minimum Inhibitory Concentration [26]: 0.78 µM | Minimum Inhibitory Concentration [27]: 0.78 µM | Minimum Inhibitory Concentration ([28]; Escherichia coli Ceph^R, resistant to cephalothin): 3.12 µM | Minimum Inhibitory Concentration [29]: ≤ 0.78 µM | Minimum Inhibitory Concentration [30]: ≤ 0.78 µM | Minimum Inhibitory Concentration [31]: ≤ 0.78 µM | insensitivity / resistance [32]: inherently insensitive | sensitivity [32, 36]: sensitive | sensitivity ([32]; S. epidermidis 1239 P^R M^R and M-1554 P^S M^S): exquisitely sensitive | antibacterial potency of dipeptide versus beta-Cl-LAla [34]: consistently and dramatically more potent an antibacterial agent than is beta-Cl-LAla alone
